“Also recorded” adds a separate entry of the source.
Tests used:
[1] = system: human corneal endothelial cells (CECs); assay: CEC population expansion, immunohistochemical observation of cellular morphology (ZO-1); assay type: cell-based; settings: 10 micromolar, 10 days
Method: (§1) Cells were cultured at 37° C. in 5% CO2 for 10 days.
In order to observe that the expanded cell population has the required cellular morphology for use in vivo, the ability of the cells to form tight junctions was measured by immunohistochemistry as follows. Cell cultures were fixed with 4% PFA for 20 minutes, permeabilized and blocked in a blocking solution of 0.3% Triton X-100 (Sigma-Aldrich) and 3% donkey serum in PBS for 30 minutes. Cells were then labeled with primary antibody in the blocking solution for 12 hours at 4° C. Primary antibody used was ZO-1 from Invitrogen. Samples were washed in PBS three times and donkey-raised secondary antibody Alexa Fluor 488 (Molecular Probes) at 1:500 dilution were applied for 30 minutes at room temperature. Cells were washed three times in PBS and nuclei (DNA) were stained with Sytox Orange (567 nm, Life Technologies). […] Fluorescence was observed using a Zeiss LSM 880 confocal microscope.

[2] = system: human corneal endothelial cells (CECs); assay: CEC population expansion, markers Collagen 8a2, AQP1, SLC4A11, RPE65, CD31 and Na/K ATPase (RT-PCR, immunohistochemistry); assay type: cell-based; settings: 10 micromolar, 10 days
Method: In order to verify that the expanded cell population expresses genes normally expressed by corneal endothelial cells in vivo, cells were cultured and RT-PCR analysis was then performed to measure the expression levels of Collagen 8a2, AQP1, SLC4A11, RPE65 and CD31. Immunohistochemical analysis was also performed to analyse the levels of Na/K ATPase and Collagen 8a2 as follows.
as §1
To perform the RT-PCR analysis, total RNA was extracted using Trizol (Invitrogen), RNeasy Mini and QIA Shredder (Qiagen) according to manufacturer's protocol. RNA quality and quantity were measured using Nanodrop 100 (Thermo-Fisher Scientific) and Bioanalyzer 2100 (Agilent Technologies). cDNA was prepared by reverse transcription and relative mRNA expression was assessed by quantitative RT-PCR using an 7900HT system (Applied Biosystems). The following cycling parameters were used:
1) 50° C. for 2 minutes; 2) 95° C. for 10 minutes; 3) 95° C. for 15 seconds 4) 60° C. for 1 minute. Steps 3-4 were repeated 40 times.
Actin mRNA levels were measured and used as a endogenous controls to normalize gene expression levels and calculate delta Ct values according to the formula dCt=Ct for gene of interest−Ct for endogenous control. Primers were obtained from Applied Biosystems. […]

YAP target gene Cyr61 = assay: In Vivo PD Assay: YAP target gene expression in mouse excisional wounds; settings: mouse full-thickness excisional wounds, topical 0.2 and 2 mg/mL, two daily doses, vs vehicle, dose-dependent
Method: The compounds of the invention also activate the YAP pathway in vivo. A study of YAP pathway target gene expression was conducted in an in vivo mouse model as described in the In Vivo PD Assay in the Examples Section A. Two full-thickness excisional wounds on the dorsum of an anesthetized mouse were treated topically with vehicle, or 0.2 and 2 mg/mL of Example 133. After two daily doses, the skin samples around the wound edge were collected and Taqman analyses were performed using Cyr61 and Gapdh probes. mRNA expression levels for the target genes were normalized to Gapdh mRNA levels and plotted against the concentration of Example 133 in FIG. 34. […] The result is consistent with known LATS biology for activation of the YAP pathway.

[3] = system: human keratinocytes (HaCaT); assay: In vitro YAP pathway activation and cell proliferation in human keratinocytes (HaCaT); assay type: cell-based
Text: Accordingly, Example 133 is useful in promoting skin regeneration.

mouse dorsal skin = assay: In Vivo Histology and Ki67 Staining Assay (skin cell proliferation); settings: intact mouse dorsal skin, topical, three days of twice-a-day dosing, vs vehicle
Method: Further, the compounds of the invention increase skin cell proliferation in vivo when applied topically. The study was conducted as described the “In Vivo Histology and Ki67 Staining Assay” in the Examples Section A. Example 133 or vehicle were applied to intact mouse dorsal skin. After three days of twice-a-day dosing, the skin samples were collected and subjected to immunohistology staining for Ki67. The sections were evaluated visually for cell proliferation and for the abundance of Ki67 positive cells. The study results are documented in FIGS. 35A and 35B.
FIG. 35B compares the abundance of Ki67 positive cell in untreated and treated mouse skin. […] Also, by using siRNA to knockdown both LATS1 and LATS2, LATS as a negative regulator of the YAP pathway has also been validated.

[4] = system: pYAP (Ser127) in human HaCaT cells; assay: Target Identification Assay: western blot for pYAP in HaCaT cell lysates; assay type: cell-based; settings: 9 μM for 1 hour in the presence of 0.5 μM Okadaic acid
Method: Compounds of Formula A1, or subformulae thereof, selectively target LATS1/2 versus MST1/2 kinases. To identify the target of the hits from the YAP translocation assay screen, the Target Identification Assay as described in the Examples Section A was performed. The results of the assay are described in FIGS. 33A to 33C.
It is consistent with the consensus in the field that LATS is responsible for YAP phosphorylation.

Cyr61 mRNA in liver = assay: In vivo treatment of mice: quantitative RT-PCR, Cyr61; settings: mouse liver, single oral dose 10 mg/kg, 2 h post-dose, relative to vehicle, mean+/-SEM
Method: All animal studies were carried out in accordance with federal, state, local and institutional guidelines governing the use of laboratory animals in research. Male C57BL/6J mice (age 8-10 weeks) were purchased from Jackson Labs (Bar Harbor, Me.). Example 46 was formulated for oral dosing at 3 mg/ml, and Example 261 at 1 mg/ml, in a suspension of methylcellulose:Tween80:Water (0.5:0.5:99). Single oral dose of either compound was at 10 mL/kg body weight. Blood and liver tissue were collected under deep anesthesia (isoflurane) at either 2 h post-dose (for mRNA analysis) or 24 h post-dose (for immunohistochemistry).
Total liver RNA was isolated from tissue after storage in RNAlater reagent (Qiagen), using a TRIzol method according to the manufacturer's instructions (Life Technologies). Relative mRNA abundance was measured by quantitative RT-PCR using TaqMan gene expression assays and reagents according to standard protocols (Applied Biosystems). Mouse probes for YAP target genes were CTGF (Mm01192933_g1) and Cyr61 (Mm00487498_m1). […] Relative changes in mRNA were calculated by the ΔΔCt method. Changes in gene expression with compound treatment are expressed as fold-change relative to the vehicle group.

**Q.** `CC(C)(O)CC(C)(C)Nc1nc(-c2ccncc2)nc2cnccc12` [Example 49, 2,4-dimethyl-4-{[2-(pyridin-4-yl)pyrido[3,4-d]pyrimidin-4-yl]amino}pentan-2-ol] was tested. Which “CEC morphology and tight junctions (ZO-1)” value [1] did it give?
**A.** The value was “retained a normal corneal endothelial cell morphology and the ability to form tight junctions”.

**Q.** What about the “Expression of corneal endothelial cell genes by the expanded CEC population” value [2] of the same compound?
**A.** The value was “express genes normally expressed by corneal endothelial cells in vivo, including Collagen 8a2, AQP1, SLC4A11; also recorded: express genes normally expressed by corneal endothelial cells in vivo, including Na/K ATPase”.

**Q.** What does the source list for `Cc1n[nH]cc1-c1nc(NC2(C)CC2)c2ccncc2n1` [Example 133, 2-(3-methyl-1H-pyrazol-4-yl)-N-(1-methylcyclopropyl)pyrido[3,4-d]pyrimidin-4-amine]?
**A.** YAP target gene Cyr61 mRNA normalized to Gapdh (YAP target gene Cyr61): significantly up-regulated; also recorded: induced YAP target gene expression; YAP pathway activation in vitro [3]: activated the YAP pathway; cell proliferation in human keratinocytes (HaCaT) [3]: promoted cell proliferation; abundance of Ki67 positive cells (mouse dorsal skin): 10%; basal cell proliferation and epidermal thickness (mouse dorsal skin): significant increase in basal cell proliferation and epidermal thickness; also recorded: increased basal layer skin cell growth; pYAP by western blot [4]: dramatically inhibited

**Q.** `CC(C)(C)Nc1cc(-c2ccncc2)nc2cnccc12` [Example 261, N-(tert-butyl)-2-(pyridin-4-yl)-1,7-naphthyridin-4-amine] was tested. Which “Cyr61 mRNA (fold-change)” value (Cyr61 mRNA in liver) did it give?
**A.** Its value is 3.9 (+/−0.6) fold-change.

Reference: US11458138B2 (Novartis AG, priority 2017, dated 2022)
